Values after ≈ are worked out from the molar mass of the structure shown.
Legend:
Type in all cases: functional, cell-based
[1] = system: KB; experiment: Cytotoxicity against human KB cells by SRB assay
[2] = Cytotoxicity against human KBVIN cells by SRB assay
[3] = system: A549; experiment: Cytotoxicity against human A549 cells by SRB assay
[4] = system: DU-145; experiment: Cytotoxicity against human DU145 cells by SRB assay

SMILES	IC50 [1]	IC50 [2]	IC50 [3]	IC50 [4]
COC(=O)[C@H]1C(/C=C/C(=O)c2ccc(O)cc2)=Cc2cc(OC)c(OC)cc2[C@H]1c1cc(OC)c(OC)c(OC)c1	5.9 µg/mL (≈ 10.5 µM)	5.17 µg/mL (≈ 9.22 µM)	6.79 µg/mL (≈ 12.1 µM)	5.84 µg/mL (≈ 10.4 µM)
COc1cc2c(cc1OC)[C@@H](c1cc(OC)c(OC)c(OC)c1)[C@H](C(=O)N1CCCC1)C(/C=C/C(=O)c1ccc(C3CCCCC3)cc1)=C2	12.3 µg/mL (≈ 18.4 µM)	12.3 µg/mL (≈ 18.5 µM)	12 µg/mL (≈ 18 µM)	12.8 µg/mL (≈ 19.2 µM)
COc1cc2c(cc1OC)[C@@H](c1cc(OC)c(OC)c(OC)c1)[C@H](C(=O)N1CCCC1)C(/C=C/C(=O)c1ccc(-c3ccccc3)cc1)=C2	16.6 µg/mL (≈ 25.2 µM)	16.9 µg/mL (≈ 25.6 µM)	24.6 µg/mL (≈ 37.3 µM)	15.5 µg/mL (≈ 23.4 µM)
COc1cc([C@@H]2c3cc4c(cc3[C@@H](Nc3ccc([N+](=O)[O-])cc3)[C@H]3COC(=O)[C@H]23)OCO4)cc(OC)c1O	0.819 µg/mL (≈ 1.57 µM)	2.1 µg/mL (≈ 4.03 µM)	0.113 µg/mL (≈ 0.217 µM)	0.8 µg/mL (≈ 1.54 µM)
COC(=O)[C@H]1C(/C=C/C(=O)c2ccc([N+](=O)[O-])cc2)=Cc2cc(OC)c(OC)cc2[C@H]1c1cc(OC)c(OC)c(OC)c1	16 µg/mL (≈ 27.1 µM)	23 µg/mL (≈ 39 µM)	16.8 µg/mL (≈ 28.5 µM)	20.3 µg/mL (≈ 34.4 µM)

— ChEMBL document CHEMBL2040746, “Synthesis and evaluation of novel podophyllotoxin analogs” (Bioorg Med Chem Lett, 2012)
